Where two headings read alike, the source gives them in different places.
Tests used:
[1] = system: Jurkat cells; test: Jurkat cell viability, resazurin (Alamar Blue) assay; format: cell-based; conditions: for IC50: Homo sapiens
Experimental: The compounds were tested for pharmacological activity. In each of the tests, each compound was tested at […] in duplicates. […] The percentage of response relative to the DMSO control was then calculated for the mean value of the duplicates of each test. The values of the three tests were finally averaged and the standard deviations calculated.
Jurkat cells (10'000 cells/well) were incubated in the presence of various concentrations of compounds, doxorubicin or staurosporine. Twenty-two hours later, cells were incubated with resazurin (20 μg/ml) for 4 hours and fluorescence was measured at 590 nm.

[2] = system: caspase 3 and 7; test: Apoptosis induction in Jurkat cells, caspase 3 and 7 assay; format: cell-based; conditions: for IC50: Homo sapiens, Jurkat cells, caspase 3/7 assay
Experimental: Compounds were assessed for their ability to induce apoptosis of Jurkat cells at 2 and 10 micromolar after 4 and 22 hours.
In order to firmly establish that the compounds of the invention cause cytotoxicity through apoptosis, IC50 of five compounds of the invention, doxorubicin and staurosporin were determined in the caspase assays; results are presented in Table 2. Importantly, the IC50 determined in the Alamar Blue and in the caspase assays were largely overlapping.

[3] = Solubilization in intravenous formulation; format: physicochemical; conditions: 5% Cremophor and 5% ethanol in water
From the text: This formulation was then used for the subsequent animal studies (maximal tolerated dose, pharmacokinetics and efficacy in cancer models).

[4] = target: purified porcine tubulin (Sus scrofa, UniProt P02550+P02554); test: Inhibition of 3H-labeled colchicine binding to purified tubulin, scintillation proximity assay; conditions: graded doses
Experimental: A series of compounds according to the invention and C14 vincristine and colchicine were tested for their capacity to inhibit ^3H-labeled colchicine binding to purified tubulin. Briefly, a limiting amount of tritium-labeled colchicine and graded doses of test compounds were added to purified porcine tubulin. After an incubation period, radioactivity associated with tubulin was determined using a scintillation proximity assay. […] By showing that these compounds interact with the colchicine binding site, it differentiates them from the tubulin inhibitors of the Vinca alkaloid- and taxane-types. The results also indicate that the compounds of the invention can be used in combination with the Vinca alkaloid- and taxane-types of tubulin inhibitors since they bind to a different aspect of tubulin, and likely affect tubulin polymerization via a different mechanism. The results also indicate that the compounds of the invention can be used even in patients who are refractory or non-responsive to other tubulin inhibitors, such as the tubulin inhibitors of the Vinca alkaloid- and taxane-types.

[5] = Pharmacokinetics after intravenous injection, plasma concentration; format: in vivo; conditions: mice, intravenous, after four hours
Experimental: The pharmacokinetics of E3 and E35 were investigated. Mice intravenously injected with 15 mg/kg of E3 were bled after 0, 1, 5, 10, 20, 30, 60, 120 and 480 minutes. […] For E35, mice intravenously injected with 30 mg/kg of […] were bled after 0, 1, 5, 10, 20, 30, 60, 120 and 480 minutes. […] Concentration then decreased steadily over the 8 hours of the study. During the first four hours after injection, circulating concentrations of E3 and E35 were found largely similar.

[6] = system: fibrosarcoma HT1080; test: Xenograft model in nude mice, fibrosarcoma HT1080; format: in vivo, human; conditions: reference compound
Experimental: (§1) The compounds of the invention were evaluated in human tumor xenograft mouse models. Nude mice were subcutaneously implanted with tumor cells (melanoma A2058, colon carcinoma HCT116, fibrosarcoma HT1080 and acute myelocytic leukemia MV114) and when the tumor reached a volume of about 100-150 mm^3, treatment was initiated. Tumor growth was followed over time until tumor volume reached 1000-1500 mm^3 or up to 60 days. An example of how tumor developed over time when the animals were administered or not with E3 three times once a week (qwk×3) is presented in FIG. 7. […]

[7] = system: colon carcinoma HCT116; test: Xenograft model in nude mice, colon carcinoma HCT116; format: in vivo, human; conditions: reference compound
Experimental: as §1

[8] = system: acute myelocytic leukemia MV114; test: Xenograft model in nude mice, acute myelocytic leukemia MV114; format: in vivo, human; conditions: reference compound
Experimental: as §1

[9] = system: melanoma A2058; test: Xenograft model in nude mice, melanoma A2058; format: in vivo, human; conditions: reference compound
Experimental: as §1

[10] = Jurkat cells, 22 h then resazurin 4 h, three experiments in duplicates, read-out: IC50
[11] = Jurkat cells, 22 h then resazurin 4 h, three experiments in duplicates

Sequence of purified porcine tubulin (P02554 whole entry): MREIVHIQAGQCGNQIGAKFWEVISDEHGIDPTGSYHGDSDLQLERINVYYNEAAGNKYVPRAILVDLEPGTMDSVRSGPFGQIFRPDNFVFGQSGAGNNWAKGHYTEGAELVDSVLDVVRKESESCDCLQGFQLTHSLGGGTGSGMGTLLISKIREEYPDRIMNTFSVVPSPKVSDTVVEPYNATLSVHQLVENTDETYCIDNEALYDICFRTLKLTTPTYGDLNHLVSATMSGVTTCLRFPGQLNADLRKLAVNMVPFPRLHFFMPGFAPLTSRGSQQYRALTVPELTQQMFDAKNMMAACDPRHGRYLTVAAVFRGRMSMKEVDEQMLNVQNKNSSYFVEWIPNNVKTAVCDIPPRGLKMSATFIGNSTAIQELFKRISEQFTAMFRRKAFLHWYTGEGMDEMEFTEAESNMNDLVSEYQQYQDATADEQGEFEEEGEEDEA
Sequence of purified porcine tubulin (P02550 whole entry): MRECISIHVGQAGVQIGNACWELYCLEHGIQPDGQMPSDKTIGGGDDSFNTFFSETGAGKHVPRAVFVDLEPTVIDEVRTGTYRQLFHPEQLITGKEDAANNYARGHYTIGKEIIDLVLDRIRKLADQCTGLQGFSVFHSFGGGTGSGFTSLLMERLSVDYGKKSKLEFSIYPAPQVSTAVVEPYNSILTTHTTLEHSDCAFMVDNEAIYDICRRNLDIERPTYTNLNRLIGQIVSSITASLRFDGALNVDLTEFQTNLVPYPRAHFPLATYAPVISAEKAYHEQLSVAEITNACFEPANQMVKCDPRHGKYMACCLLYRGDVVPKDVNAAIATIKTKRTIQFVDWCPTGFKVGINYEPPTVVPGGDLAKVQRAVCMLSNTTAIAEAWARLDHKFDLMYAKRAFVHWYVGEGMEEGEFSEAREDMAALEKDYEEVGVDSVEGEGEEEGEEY

Work on `Cc1nccc2c1[nH]c1ccc(-c3cccc(Cl)c3)cc12` [Example E2, 6-(3-chlorophenyl)-1-methyl-9H-pyrido[3,4-b]indole] yielded an IC50 [1, 10] of 104 nM and an IC50 [2] of 0.108 µM.

With `Cc1nccc2c1[nH]c1ccc(-c3cccc(C(F)(F)F)c3)cc12` [Example E6, 6-(3-(trifluoromethyl)phenyl)-1-methyl-9H-pyrido[3,4-b]indole] the IC50 [1, 10] was 1260 nM, the “caspase 3 and 7 activity compared to solvent control (%)” value (from here on “caspase 3 and 7 activity … (%)”) ([2]; 2 μM after 4 h) was 9.2% and the “caspase 3 and 7 activity … (%)” value ([2]; 2 μM after 22 h) was 482.6%. The “caspase 3 and 7 activity … (%)” value ([2]; 10 μM after 4 h) was 11.2% and the “caspase 3 and 7 activity … (%)” value ([2]; 10 μM after 22 h) was 585.1%.

For `CCc1nccc2c1[nH]c1ccc(-c3cccc(NS(C)(=O)=O)c3)cc12` [Example E44, N-(3-(1-ethyl-9H-pyrido[3,4-b]indol-6-yl)phenyl)methanesulfonamide], the IC50 ([1]; Jurkat) was 90 nM, the “suitability of the formulation” value [3] was “adequate” and the “inhibition of 3H-labeled colchicine binding to tubulin” value (“inhibition” below) [4] was “inhibited binding of colchicine”.

With `CCc1nccc2c1[nH]c1ccc(-c3cccc(C(N)=O)c3)cc12` [Example E35, 6-(3-aminocarbonylphenyl)-1-ethyl-9H-pyrido[3,4-b]indole] the IC50 ([1]; Jurkat) was 4 nM, the “circulating concentration compared with E3” value [5] was “substantially lower circulating concentration than E3” and the “suitability of the formulation” value [3] was “adequate”. For the same molecule, the “inhibition” value [4] was “inhibited binding of colchicine”.

Work on `Cc1nccc2c1[nH]c1ccc(-c3cccc(C#N)c3)cc12` [Example E21, 6-(3-cyanophenyl)-1-methyl-9H-pyrido[3,4-b]indole] yielded an IC50 [1, 10] of 47 nM and an IC50 [2] of 0.061 µM.

`Cc1nccc2c1[nH]c1ccc(-c3ccc4c(c3)CCO4)cc12` [Example E29, 6-(2,3-dihydrobenzofuran-5-yl)-1-methyl-9H-pyrido[3,4-b]indole] showed an IC50 [1, 10] of 64 nM and an IC50 [2] of 0.128 µM.

In the case of `CC(=O)O[C@@]12CO[C@@H]1C[C@H](O)[C@@]1(C)C(=O)[C@H](O)C3=C(C)[C@@H](OC(=O)[C@H](O)[C@@H](NC(=O)OC(C)(C)C)c4ccccc4)C[C@@](O)([C@@H](OC(=O)c4ccccc4)[C@H]21)C3(C)C` [Docetaxel, reference compound], the “Control with reference compound and days to study endpoint” value (from here on “Control with reference compound and days”) [6] is reported as “not reached by day 58 days”.

`COc1cccc(-c2ccc3[nH]c4c(C)nccc4c3c2)c1` [Example E9, 6-(3-methoxyphenyl)-1-methyl-9H-pyrido[3,4-b]indole] gave an IC50 [1, 10] of 137 nM and an IC50 [2] of 0.215 µM.

In the case of `Cc1nccc2c1[nH]c1ccc(-c3cccnc3)cc12` [Example E25, 6-(pyridine-3-yl)-1-methyl-9H-pyrido[3,4-b]indole], the IC50 [1, 10] is reported as 602 nM, the “caspase 3 and 7 activity … (%)” value ([2]; 2 μM after 4 h) is reported as −0.6% and the “caspase 3 and 7 activity … (%)” value ([2]; 2 μM after 22 h) is reported as 624.4%. The “caspase 3 and 7 activity … (%)” value ([2]; 10 μM after 4 h) was 18.7% and the “caspase 3 and 7 activity … (%)” value ([2]; 10 μM after 22 h) was 405.7%.

With `CCc1c2c(nc3ccc(OC(=O)N4CCC(N5CCCCC5)CC4)cc13)-c1cc3c(c(=O)n1C2)COC(=O)[C@]3(O)CC` [Irinotecan, reference compound] the “Control with reference compound and days” value [7] was “not reached by day 58 days”.

For `COc1cc(-c2ccc3[nH]c4c(C)nccc4c3c2)cc(OC)c1OC` [Example C14], the IC50 [1, 10] was > 10000 nM and the “inhibition” value [4] was “did not inhibit colchicine binding”.

With `Cc1nccc2c1[nH]c1ccc(-c3ccccc3)cc12` [Example E1, 6-phenyl-1-methyl-9H-pyrido[3,4-b]indole] the IC50 [1, 10] was 413 nM, the “caspase 3 and 7 activity … (%)” value ([2]; 2 μM after 4 h) was −8.5% and the “caspase 3 and 7 activity … (%)” value ([2]; 2 μM after 22 h) was 618.5%. The “caspase 3 and 7 activity … (%)” value ([2]; 10 μM after 4 h) was −10.0% and the “caspase 3 and 7 activity … (%)” value ([2]; 10 μM after 22 h) was 535.9%.

For `CC[C@]1(O)C[C@@H]2CN(CCc3c([nH]c4ccccc34)[C@@](C(=O)OC)(c3cc4c(cc3OC)N(C)[C@H]3[C@@](O)(C(=O)OC)[C@H](OC(C)=O)[C@]5(CC)C=CCN6CC[C@]43[C@@H]65)C2)C1` [Vinblastine, reference compound], the “Control with reference compound and days” value [8] was “not reached by day 58 days” and the “Control with reference compound and days” value [9] was “Vinblastine, 45 days”.

With `Cc1nccc2c1[nH]c1ccc(-c3ccc(C=O)o3)cc12` [Example E31, 6-(5-formylfuran-2-yl)-1-methyl-9H-pyrido[3,4-b]indole] the IC50 [1, 10] was 2290 nM.

With `Cc1ccc(-c2ccc3[nH]c4c(C)nccc4c3c2)o1` [Example E28, 6-(5-methylfuran-2-yl)-1-methyl-9H-pyrido[3,4-b]indole] the IC50 [1, 10] was 130 nM.

`CCc1nccc2c1[nH]c1ccc(-c3cccc(COC)c3)cc12` [Example E40, 6-(3-(methoxymethyl)phenyl)-1-ethyl 9H-pyrido[3,4-b]indole] showed an IC50 [1, 10] of 2880 nM.

In the case of `Cc1nccc2c1[nH]c1ccc(-c3ccc4c(c3)OCO4)cc12` [Example E30, 6-(benzo[d][1,3]dioxol-5-yl)-1-methyl-9H-pyrido[3,4-b]indole], the IC50 [1, 10] is reported as 490 nM.

Work on `Cc1c2[nH]c3ccc(-c4cc(Cl)cc(Cl)c4)cc3c2cc[n+]1[O-]` [Example E60, 6-(3,5-dichlorophenyl)-1-methyl-9H-pyrido[3,4-b]indole 2-oxide] yielded an IC50 [1, 10] of 25 nM.

Molecule `Cc1nccc2c1[nH]c1ccc(-c3ccc(CO)o3)cc12` [Example E32, 6-(5-hydroxymethylfuran-2-yl)-1-methyl-9H-pyrido[3,4-b]indole] has an IC50 [1, 10] of 3660 nM.

Molecule `CCCc1nccc2c1[nH]c1ccc(-c3ccc4c(c3)CCO4)cc12` [Example E38, 6-(2,3-dihydrobenzofuran-5-yl)-1-propyl-9H-pyrido[3,4-b]indole] has an IC50 [1, 10] of 230 nM.

Molecule `COc1cncc(-c2ccc3[nH]c4c(C)nccc4c3c2)c1` [Example E53, 6-(5-methoxypyridin-3-yl)-1-methyl-9H-pyrido[3,4-b]indole] has an IC50 [1, 10] of 2610 nM.

For `Cc1nccc2c1[nH]c1ccc(-c3cccc(CC(=O)O)c3)cc12` [Example C7, 6-(3-carboxymethylphenyl)-1-methyl-9H-pyrido[3,4-b]indole], the “IC50 (μM)” value [1, 11] was “not active”.

`Cc1nccc2c1[nH]c1ccc(-c3cccc(S(=O)(=O)NCCO)c3)cc12` [Example E47, N-(2-hydroxyethyl)-3-(1-methyl-9H-pyrido[3,4-b]indol-6-yl)benzenesulfonamide] showed an IC50 [1, 10] of 1210 nM.

With `Cc1nccc2c1[nH]c1ccc(-c3ccc4ccccc4c3)cc12` [Example C1, 6-(naphthalen-2-yl)-1-methyl-9H-pyrido[3,4-b]indole] the “IC50 (μM)” value [1, 11] was “not active”.

In the case of `CCOc1ccc(F)c(-c2ccc3[nH]c4c(C)nccc4c3c2)c1` [Example E7, 6-(5-ethoxy-2-fluorophenyl)-1-methyl-9H-pyrido[3,4-b]indole], the IC50 [1, 10] is reported as 775 nM, the “caspase 3 and 7 activity … (%)” value ([2]; 2 μM after 4 h) is reported as −7.6% and the “caspase 3 and 7 activity … (%)” value ([2]; 2 μM after 22 h) is reported as 616.1%. For the same molecule, the “caspase 3 and 7 activity … (%)” value ([2]; 10 μM after 4 h) was −10.2% and the “caspase 3 and 7 activity … (%)” value ([2]; 10 μM after 22 h) was 548.1%.

From patent publication US20130274258A1, “CARBAZOLE AND CARBOLINE DERIVATIVES, AND PREPARATION AND THERAPEUTIC APPLICATIONS THEREOF” (PHILIP MORRIS PRODUCTS S.A., priority 2010, published 2013)
